Assay results as given in the NIST ThermoML archive (doi:10.1021/je0504459).

Experiment: xn = mol fraction of the nth substance listed
Details: 101 kPa, Liquid; for speed of sound: Sing-around technique in a fixed-path interferometer

ClC(Cl)Cl [trichloromethane] + CCCCCCCO
Details | kinematic viscosity, 303.15 K [m2/s] | kinematic viscosity, 313.15 K [m2/s] | mass density, 303.15 K [kg/m3] | mass density, 313.15 K [kg/m3] | speed of sound, 303.15 K [m/s] | speed of sound, 313.15 K [m/s]
x1 = 0.0487 | 5.58e-06 | 4.17e-06 | 833.37 | 825.81 | 1296 | 1262
x1 = 0.1002 | 4.98e-06 | 3.74e-06 | 853.69 | 845.75 | 1277 | 1244
x1 = 0.1498 | 4.41e-06 | 3.34e-06 | 874.2 | 865.8 | 1260 | 1226
x1 = 0.2006 | 3.86e-06 | 2.95e-06 | 896.15 | 887.32 | 1241 | 1207
x1 = 0.2516 | 3.38e-06 | 2.61e-06 | 919.27 | 909.96 | 1222 | 1187
x1 = 0.3003 | 2.93e-06 | 2.29e-06 | 942.39 | 932.57 | 1204 | 1168
x1 = 0.3538 | 2.52e-06 | 1.99e-06 | 969.09 | 958.73 | 1183 | 1147
x1 = 0.4003 | 2.18e-06 | 1.75e-06 | 993.52 | 982.67 | 1165 | 1129
x1 = 0.4466 | 1.89e-06 | 1.54e-06 | 1019.1 | 1007.69 | 1147 | 1111
x1 = 0.5001 | 1.61e-06 | 1.32e-06 | 1050.23 | 1038.22 | 1126 | 1091
x1 = 0.5517 | 1.35e-06 | 1.13e-06 | 1082.09 | 1069.43 | 1107 | 1072
x1 = 0.6002 | 1.17e-06 | 1e-06 | 1113.83 | 1100.51 | 1089 | 1054
x1 = 0.6539 | 9.76e-07 | 8.45e-07 | 1151.17 | 1137.19 | 1070 | 1035
x1 = 0.6994 | 8.51e-07 | 7.41e-07 | 1184.84 | 1170.19 | 1054 | 1019
x1 = 0.7449 | 7.4e-07 | 6.59e-07 | 1220.55 | 1205.18 | 1039 | 1004
x1 = 0.8 | 6.33e-07 | 5.69e-07 | 1266.83 | 1250.5 | 1022 | 987
x1 = 0.8465 | 5.58e-07 | 5.09e-07 | 1308.67 | 1291.64 | 1008 | 972
x1 = 0.9003 | 4.81e-07 | 4.45e-07 | 1360.81 | 1342.82 | 993 | 957
x1 = 0.9521 | 4.2e-07 | 3.88e-07 | 1414.86 | 1396.16 | 979 | 943
x1 = 1 | 3.63e-07 | 3.39e-07 | 1469.21 | 1449.74 | 969 | 934
